A value given as a limit tells only on which side of the number the result lay.

This is an account of results in patent US20250215493A1, “NUCLEOTIDES WITH ENZYMATICALLY CLEAVABLE 3'-O-GLYCOSIDE BLOCKING GROUPS FOR SEQUENCING” (Illumina, Inc., priority 2023, published 2025).

Data set [1] concerns α-Mannosidase 92B, Bacteroides thetaiotaomicron. The data set is described as follows: Cleavage of 3′-glycoside thymidine by glycosyl hydrolases (HPLC). Type of data set: biochemical. The following applies: 100 mM HEPES pH 7.0, 2 mM CaCl2, 37° C. How it is done: (§1) The cleavage of the 3′-glycoside moiety from 3′-(β)-glucopyranoside thymidine, 3′-(β)-xylopyranoside thymidine and 3′-(α)-mannopyranoside thymidine using glycosyl hydrolases was tested by incubating the nucleoside substrate (200 μM) with the enzyme (2 μM) in buffer. At set timepoints, 50 μL aliquots of the reaction solution were taken and quenched with 50 μL of either 0.1 M EDTA or […]. The aliquots were then analysed by reverse phase HPLC (YMC-Triart C18 Column, 12 nm, 5 μm, 250×4.6 mm column) using a gradient from 0% to 8% acetonitrile in 0.1 M TEAB over 25 minutes, monitoring the disappearance of the 3′-glycopyranoside thymidine substrate peak and the appearance of the thymidine product peak.

Data set [2] deals with α-Mannosidase 92S, Bacteroides thetaiotaomicron. The data set is described as above. It counts as biochemical. The following applies: 100 mM HEPES pH 7.0, 2 mM CaCl2, 37° C. As to the method: as §1
The subject of data set [3] is β-Glucosidase 1A, Thermobifida fusca. Described as above. It counts as biochemical. The settings on record: 100 mM HEPES pH 7.0, 50° C.; 200 μM substrate, 2 μM enzyme. How it is done:
as §1

Data set [4] concerns β-Glucosidase 3B, Cellvibrio japonicus. The description is as above. Type of data set: biochemical. The following applies: 37° C. As to the method:
as §1

For data set [5], the system named is β-Glucosidase 1A, Thermus thermophilus. The description is as above. Type of data set: biochemical. The settings on record: 100 mM sodium citrate pH 6.5, 50° C.; 200 μM substrate, 2 μM enzyme. How it is done:
as §1

For data set [6], the system named is Xylosidase 3A, Sulfolobus solfataricus. Described as above. It counts as biochemical. The settings on record: 100 mM MES pH 6.0, 50° C. How it is done: as §1
The subject of data set [7] is Xylosidase 43A, Thermobifida fusca. The description is as above. It counts as biochemical. The settings on record: 100 mM sodium citrate pH 5.5, 50° C. As to the method: as §1
Data set [8] concerns Xylosidase 39A, Clostridium stercorarium. Described as above. It counts as biochemical. The settings on record: 100 mM MES pH 6.0, 5 mM CaCl2, 50° C. As to the method:
as §1

The next data set deals with Pol A (SBS polymerase). The data set is described as follows: Sequencing flowcell assay, loss of % T call signal on incorporation of unlabeled 3′ blocked dTTP. It counts as biochemical. As to the method: (§2) A further example examined whether cleavage of 3′-ABF is feasible on DNA clusters on the surface of a sequencing flow cell. To this end, a sequencing assay monitoring the loss and recovery of % T call signal as read-out was carried out using an Illumina NextSeq 2000 instrument with a P2 flow cell. FIG. 4A illustrates the sequencing assay workflow using loss and recovery of % T call signal as readout, including: (1) The % T call signal baseline based on a standard Illumina Green ffT (e.g., ffT-3′-AZM-LN3-AF550POPOso) is first established with a series of SBS cycles using standard SBS chemistry; (2) incorporation by Pol A (SBS polymerase) of unlabeled dTTP with a different 3′-block (i.e., 3′-ABF dTTP or 3′-AOM dTTP used as control) results in the loss of this signal; (3) the % T signal is only partially recovered to around 75% relative to the initial baseline in subsequent standard cycles as around 25% DNA clusters are blocked by the alternative 3′-block which is uncleaved under standard SBS chemistry conditions; (4) injection of the cleavage mix specifically removing this block (i.e., ABFase removing the 3′-ABF or Pd catalyst removing 3′-AOM for the control experiment) followed by standard cycles resulting in the full recovery of the signal. […]

A further data set deals with C. japonicum ABFase. The data set is described as follows: Sequencing flowcell assay, recovery of % T call signal after enzymatic cleavage from DNA clusters. The following applies: 30 minutes, 60° C., pH 5.5. Type of data set: biochemical. How it is done: as §2
A short description of data set [9]: 3′-ABF blocking group stability testing (staging in incorporation buffer, UPLC). Type of data set: physicochemical. How it is done:
T Nucleoside was blocked with a 3′-O-α-L-arabinofuranoside (3′-ABF,
blocking groups. 1 mL of 3′ blocked T nucleosides at 0.1 mM were made in a solution of 50 mM glycine buffer (pH 9.9), 50 mM NaCl, and 1 mM EDTA. F
These solutions were incubated at 60° C. in a heating block for 1 month. Spontaneous cleavage of the 3′-ABF under incorporation conditions (50 mM Glycine pH 9.8 at 60° C.) was measured by staging 3′-ABF deoxythymine to evaluate the stability of 3′-ABF as a blocking group. At set time points, 40 μL aliquots were taken and analyzed by UPLC (conditions/column) to determine the percentage of blocked nucleotide remaining and the eventual formation of unblocked nucleotide.

The test system of another data set is P. anserina GH51 ABFase. The data set is described as follows: Enzymatic cleavage of 3′-ABF deoxythymidine by GH51 ABFase (HPLC). Type of data set: biochemical, Podosporina anserina. The following applies: 60° C., sodium citrate pH 5.5; 200 μM substrate, 2 μM enzyme. As to the method: (§3) Candidate arabinofuranosidases (ABFases) were tested for hydrolysis of 3′-ABF. 3′-ABF deoxythymidine was preincubated in […] sodium citrate pH 5.5 or sodium phosphate pH 6.5 at designated temperatures for 5 minutes. Enzyme was added to the reaction so that the final reaction contained 200 μM substrate and 2 μM enzyme. At indicated time points, 50 μL aliquots were removed and quenched with 50 μL 0.1N NaOH prior to analysis by HPLC (YMC Triart C18, 250×4.5 mm, S-5 μm, 12 nm, 0.1M TEAB/100% Acetonitrile) to determine the percentage of enzymatically unblocked nucleotide (or % deprotection).
(§4) Various arabinofuranosidases (ABFases) included CAZy Glycoside Hydrolases family 51 (GH51) from Thermotoga maritima, Cellvibrio japonicus, Clostridium thermocellum, Bacillus subtilis, and Podosporina anserina. The molar ratio of enzyme to 3′-ABF deoxythymidine was 1:100 in all reaction mixes. The reaction using T. maritima ABFase was carried out at 80° C. with a sodium phosphate buffer to ensure a pH of 6.5. The reaction using C. japonicus ABFase was carried out at 37° C. with a sodium citrate buffer to ensure a pH of 5.5. The reaction using C. thermocellum ABFase was carried out at 65° C. with a sodium phosphate buffer to ensure a pH of 6.5. The reaction using B. subtilis ABFase was carried out at 60° C. with a sodium phosphate buffer to ensure a pH of 6.5. […]

In the next data set the test system is T. maritima GH51 ABFase. The data set is described as above. It counts as biochemical, Thermotoga maritima. The settings on record: 80° C., sodium phosphate pH 6.5; 200 μM substrate, 2 μM enzyme. As to the method: as §3, §4
The target in data set [10] is C. thermocellum GH51 ABFase (Acetivibrio thermocellus, UniProt A3DIH0). The description is as above. The following applies: 65° C., sodium phosphate pH 6.5; 200 μM substrate, 2 μM enzyme. Type of data set: biochemical, Clostridium thermocellum. How it is done:
as §3, §4

Another data set deals with C. japonicus GH51 ABFase. The data set is described as above. Type of data set: biochemical, Cellvibrio japonicus. The settings on record: 37° C., sodium citrate pH 5.5; 200 μM substrate, 2 μM enzyme. As to the method:
as §3, §4

The subject of a further data set is B. subtilis GH51 ABFase. The description is as above. Type of data set: biochemical, Bacillus subtilis. The following applies: 60° C., sodium phosphate pH 6.5; 200 μM substrate, 2 μM enzyme. How it is done:
as §3, §4

In data set [11] the test system is mutant DNA polymerase Pol A. Briefly: Primer extension assay, incorporation into DNA (33P-labelled primer:template, PAGE). Type of data set: biochemical. How it is done:
The incorporation of the 5′-triphosphate 3′-[(β)-D-glucopyranosyl]thymidine and 5′-triphosphate 3′-[(β)-D-xylopyranosyl]thymidine into DNA by a mutant DNA polymerase Pol A was tested using a primer extension assay. Briefly, a ^33P-labelled DNA primer:template (20 nM) was incubated with the DNA polymerase ([…]) and the nucleotide triphosphates (1 μM) in buffer (50 mM Glycine pH 9.6, 50 mM NaCl, 9 mM MgSO4, 1 mM EDTA) at 60° C. The rate was determined by calculating the percentage of incorporation compared to the initial primer template band and the incorporation results are shown in FIG. 6B.

[12] abbreviates: 1 μM nucleotide, 50 mM Glycine pH 9.6, 60° C.

C. thermocellum GH51 ABFase, sequence (A3DIH0 whole entry): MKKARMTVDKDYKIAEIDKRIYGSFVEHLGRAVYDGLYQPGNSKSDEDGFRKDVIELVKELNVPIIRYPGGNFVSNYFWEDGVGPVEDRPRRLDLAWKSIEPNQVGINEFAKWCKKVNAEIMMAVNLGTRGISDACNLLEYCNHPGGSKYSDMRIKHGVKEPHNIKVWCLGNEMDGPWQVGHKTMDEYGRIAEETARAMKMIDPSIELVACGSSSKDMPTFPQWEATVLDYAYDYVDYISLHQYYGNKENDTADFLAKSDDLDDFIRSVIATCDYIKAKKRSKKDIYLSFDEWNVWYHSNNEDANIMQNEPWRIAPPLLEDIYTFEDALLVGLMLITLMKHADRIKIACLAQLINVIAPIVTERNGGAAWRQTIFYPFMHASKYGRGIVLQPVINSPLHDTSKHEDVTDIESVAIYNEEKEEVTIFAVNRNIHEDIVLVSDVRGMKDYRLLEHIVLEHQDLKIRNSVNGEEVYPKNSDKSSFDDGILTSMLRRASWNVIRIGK

Regarding `Cc1cn([C@H]2CC(O[C@H]3OC(CO)[C@@H](O)C(O)C3O)[C@@H](CO)O2)c(=O)[nH]c1=O` (stereo partly drawn) [3′-(α)-mannopyranoside thymidine, 3′-[(α)-D-mannopyranosyl]thymidine], the “cleavage of the 3′-mannopyranoside group” value in data set [1] and in [2] was “not observed” in each case.
In the case of `Cc1cn([C@H]2CC(O[C@@H]3OC(CO)[C@@H](O)C(O)C3O)[C@@H](CO)O2)c(=O)[nH]c1=O` (stereo partly drawn) [3′-(β)-glucopyranoside thymidine, 3′-[(β)-D-glucopyranosyl]thymidine], the “time to complete cleavage of the 3′-glucopyranoside group” value in data set [3] was “less than 2 minutes”; in data set [4] (pH 6.5 (100 mM sodium citrate)), “approximately 2 hours”; in data set [4] (pH 7.5 (100 mM sodium phosphate)), “approximately 2 hours”; in data set [5], “less than 2 minutes”.
Consider `Cc1cn([C@H]2CC(O[C@@H]3OC[C@@H](O)C(O)C3O)[C@@H](CO)O2)c(=O)[nH]c1=O` (stereo partly drawn) [3′-(β)-xylopyranoside thymidine, 3′-[(β)-D-xylopyranosyl]thymidine], for which the “cleavage of the 3′-xylopyranoside group” value in data set [6], in data set [7] and in [8] was “observed” in each case. Moreover, the “time to full conversion of the substrate” value in data set [6], in [7] and in [8] was over 22 h each time.
As for `Cc1cn([C@H]2C[C@H](O[C@@H]3O[C@@H](CO)[C@H](O)[C@H]3O)[C@@H](COP(=O)(O)OP(=O)(O)OP(=O)(O)O)O2)c(=O)[nH]c1=O` [3′-ABF TTP, 3′-O-(α-L-arabinofuranosyl)-deoxythymidine-5′-triphosphate], the “% T fluorescence signal upon incorporation of the unlabeled nucleotide” value in the data set with Pol A (SBS polymerase) (NextSeq 2000, P2 flow cell) is reported as “fully drops”. Moreover, in the data set on Pol A (SBS polymerase) (of the initial baseline, before enzymatic cleavage), the “% T fluorescence signal recovered when standard SBS cycles resume” value is recorded as “around 75%”. For the same molecule, the “recovery of the initial % T fluorescence signal after enzymatic cleavage” value in the data set on C. japonicum ABFase is “full recovery”.
Turning to `Cc1cn([C@H]2C[C@H](O[C@@H]3O[C@@H](CO)[C@H](O)[C@H]3O)[C@@H](CO)O2)c(=O)[nH]c1=O` [3′-ABF-dT, 3′-O-(α-L-arabinofuranosyl)-deoxythymidine], the “percentage of remaining blocked nucleoside” value in data set [9] (after 31 days of staging at 60° C., 0.1 mM in 50 mM glycine buffer (pH 9.9), 50 mM NaCl, 1 mM EDTA) is “About 100%”. Also, the “stability of 3′-blocking group compared to AZM in solution” value in data set [9] (higher stability vs 3′-AZM-dT, 60° C., glycine buffer) is listed as 80-100 fold. Moreover, the “observed reaction constant kobs” value with P. anserina GH51 ABFase is 0.19 s⁻¹; with T. maritima GH51 ABFase, 0.15 s⁻¹; in data set [10], 0.01 s⁻¹; in the data set with C. japonicus GH51 ABFase, 0.03 s⁻¹; with B. subtilis GH51 ABFase it was 0.035 s⁻¹.
As to `Cc1cn([C@H]2CC(O[C@@H]3OC(CO)[C@@H](O)C(O)C3O)[C@@H](COP(=O)(O)OP(=O)(O)OP(=O)(O)O)O2)c(=O)[nH]c1=O` (stereo partly drawn) [5′-triphosphate 3′-[(β)-D-glucopyranosyl]thymidine], in data set [11] (setting [12]), the incorporation observed entry was “no detectable incorporation” and the “substrate for Pol A” value is reported as “is a poor substrate for Pol A”.
In the case of `Cc1cn([C@H]2CC(O[C@@H]3OC[C@@H](O)C(O)C3O)[C@@H](COP(=O)(O)OP(=O)(O)OP(=O)(O)O)O2)c(=O)[nH]c1=O` (stereo partly drawn) [5′-triphosphate 3′-[(β)-D-xylopyranosyl]thymidine], in [11] (setting [12]), the “substrate for Pol A” value was “is a substrate for Pol A”. Further, in [11] (compared to 5′-triphosphate 3′-[(α)-L-arabinofuranosyl]thymidine and 5′-triphosphate 3′-allyloxymethyl thymidine, 60° C., pH 9.6), the rate of incorporation result is reported as “slower”.
